Measured values taken from BindingDB's records for doi:10.1021/acsmedchemlett.0c00651 (Philipps University, 2021).

How the values were obtained:
Prothrombin = Prothrombin (Bos taurus, UniProt P00735); assay: Inhibition of bovine thrombin using Tos-Gly-Pro-Arg-AMC as substrate by fluorescence assay
Coagulation factor X = Coagulation factor X (Homo sapiens, UniProt P00742); assay: Inhibition of human factor Xa using Mes-Darg-Pro-Arg-AMC as flurogenic substrate by fluorescence assay
Plasminogen = Plasminogen (Homo sapiens, UniProt P00747); assay: Inhibition pf human plasmin using Mes-Darg-Phe-Arg-AMC as substrate by fluorescence assay
Plasminogen, sequence (P00747 97-580 limits assumed): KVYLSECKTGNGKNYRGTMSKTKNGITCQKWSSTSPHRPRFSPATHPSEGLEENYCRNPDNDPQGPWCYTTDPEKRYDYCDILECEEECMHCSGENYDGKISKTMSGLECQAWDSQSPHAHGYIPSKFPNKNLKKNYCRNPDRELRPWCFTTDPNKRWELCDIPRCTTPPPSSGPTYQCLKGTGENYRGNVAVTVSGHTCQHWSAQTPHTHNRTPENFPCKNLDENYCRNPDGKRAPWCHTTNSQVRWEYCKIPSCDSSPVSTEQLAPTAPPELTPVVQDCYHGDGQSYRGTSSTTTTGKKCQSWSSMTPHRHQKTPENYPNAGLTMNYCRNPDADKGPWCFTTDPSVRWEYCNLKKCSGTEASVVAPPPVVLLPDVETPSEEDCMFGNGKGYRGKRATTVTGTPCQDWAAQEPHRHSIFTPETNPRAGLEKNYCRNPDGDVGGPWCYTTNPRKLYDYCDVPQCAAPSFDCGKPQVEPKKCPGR
Plasminogen, sequence (P00747 581-810 limits assumed): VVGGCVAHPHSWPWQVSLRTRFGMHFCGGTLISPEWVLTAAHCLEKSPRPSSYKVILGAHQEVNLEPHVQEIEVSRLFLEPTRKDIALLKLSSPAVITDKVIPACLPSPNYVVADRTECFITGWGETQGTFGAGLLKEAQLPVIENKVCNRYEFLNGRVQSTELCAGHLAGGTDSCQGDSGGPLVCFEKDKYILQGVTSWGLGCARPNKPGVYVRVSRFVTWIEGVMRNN

Measured: Ki

Coagulation factor X, sequence (P00742 41-179 limits assumed): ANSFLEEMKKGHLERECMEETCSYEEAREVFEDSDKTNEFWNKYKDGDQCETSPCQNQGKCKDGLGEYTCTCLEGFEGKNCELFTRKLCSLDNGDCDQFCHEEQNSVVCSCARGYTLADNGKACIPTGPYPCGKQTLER
Coagulation factor X, sequence (P00742 235-488 limits assumed): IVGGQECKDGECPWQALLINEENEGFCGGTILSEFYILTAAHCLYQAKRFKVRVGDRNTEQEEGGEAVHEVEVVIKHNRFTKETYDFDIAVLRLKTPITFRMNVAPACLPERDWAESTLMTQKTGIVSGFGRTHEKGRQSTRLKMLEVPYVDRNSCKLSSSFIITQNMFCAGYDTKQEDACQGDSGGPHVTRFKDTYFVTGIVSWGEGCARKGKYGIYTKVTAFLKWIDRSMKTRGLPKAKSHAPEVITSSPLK

CC(C)(C)[C@H](NC(=O)[C@H](CCONC(=N)N)NC(=O)Cc1ccc(CNC(=N)N)cc1)C(=O)N[C@@H](CCONC(=N)N)C(=O)NCc1ccc(C(=N)N)cc1
> 3 µM: all assays above
